In US20240218022A1, “ANTI-VISTA MACROCYCLIC PEPTIDES AND COMPOSITIONS” (BRISTOL-MYERS SQUIBB COMPANY, priority 2022, published 2024):
Starred links: 1 amine or outer side, 2 acyl side, 3 side chain; linkers in the order of their positions; H or OH if unused. Positions of bridges follow the written chain, without caps; N, C: chain ends. Non-standard residues stand in square brackets, D forms with d. Residues, ends and D or L forms follow the SMILES beside them. ξ: configuration not given here. Phe(3-Me) = Cc1cccc(C[C@H](N)C(=O)O)c1; βAsp = O=C(O)[C@H](CC(=O)[*:2])N[*:1]; Ile(3ξ) = CCC(C)[C@H](N)C(=O)O; Ahp(2) = CCCCC[C@H](N)C(=O)O; NMeNle = CCCC[C@H](NC)C(=O)O; Tle = CC(C)(C)[C@H](N)C(=O)O; Pip = O=C(O)[C@@H]1CCCCN1; NHexGly = CCCCCCNCC(=O)O; Nle = CCCC[C@H](N)C(=O)O; Aun = NCCCCCCCCCCC(=O)O; Aze = O=C(O)[C@@H]1CCN1; AEEA = NCCOCCOCC(=O)O

Molecular target: T1, mouse VISTA (mVISTA) (Mus musculus, UniProt Q9D659)
T1 construct: expressed in transfected cells; host or cells: Human embryonic kidney 293T cells
T1 sequence (Q9D659 33-308): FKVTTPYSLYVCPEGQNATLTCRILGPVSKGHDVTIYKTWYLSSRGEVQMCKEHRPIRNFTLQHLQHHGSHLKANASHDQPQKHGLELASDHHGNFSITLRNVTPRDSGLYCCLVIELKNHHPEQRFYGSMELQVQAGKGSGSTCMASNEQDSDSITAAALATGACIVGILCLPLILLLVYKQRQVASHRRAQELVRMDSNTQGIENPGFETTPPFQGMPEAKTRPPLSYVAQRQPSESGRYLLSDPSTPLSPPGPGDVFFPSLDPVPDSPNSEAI
Assay: Cell-Based Binding High-Content Assay For mVISTA (HC CBA mVISTA)
Conditions: read-out: HC CBA mVISTA IC50
How it was run: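 Competition of compound with a biotinylated peptide (final 2 nM, 30 min at RT) for binding to mVISTA on 293T cells, run under no-wash or wash (1 h compound preincubation then removal) formats. Readout by Alexa 647–streptavidin imaging on a high-content platform; four-parameter logistic fit gave IC50.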

Structure (SMILES)	IC50 [nM]
CCCCCCN1CC(=O)N[C@@H](Cc2ccc(O)cc2)C(=O)N[C@@H](CCCC)C(=O)N[C@@H](CC(N)=O)C(=O)N[C@@H](CCCNC(=N)N)C(=O)N(C)[C@@H](CCCC)C(=O)N[C@@H](CCCCC)C(=O)N2CCCC[C@H]2C(=O)N[C@@H](C(C)CC)C(=O)N[C@@H](CO)C(=O)N[C@H](C(=O)N[C@@H](CC(=O)NCCOCCOCC(=O)NCCCCCCCCCCC(=O)O)C(=O)O)CSCC(=O)N[C@@H](Cc2ccccc2)C(=O)N[C@@H](Cc2c[nH]c3ccccc23)C(=O)N[C@@H](CC(=O)O)C1=O (stereo partly shown) [Example 2182] ({CH2CO}-FWD[NHexGly]Y[Nle]NR[NMeNle][Ahp(2)][Pip][Ile(3ξ)]SC[βAsp][AEEA][Aun]-OH; thioether N-14)	30.9
CCCCCCN1CC(=O)N[C@@H](Cc2ccc(O)cc2)C(=O)N[C@@H](CCCC)C(=O)N[C@@H](CC(N)=O)C(=O)N[C@@H](CCCNC(=N)N)C(=O)N(C)[C@@H](CCCC)C(=O)N[C@@H](CCCCC)C(=O)N2CC[C@H]2C(=O)N[C@@H](C(C)CC)C(=O)N[C@@H](CO)C(=O)N[C@H](C(=O)N[C@@H](CC(=O)NCCOCCOCC(=O)NCCCCCCCCCCC(=O)O)C(=O)O)CSCC(=O)N[C@@H](Cc2ccccc2)C(=O)N[C@@H](Cc2c[nH]c3ccccc23)C(=O)N[C@@H](CC(=O)O)C1=O (stereo partly shown) [Example 2183] ({CH2CO}-FWD[NHexGly]Y[Nle]NR[NMeNle][Ahp(2)][Aze][Ile(3ξ)]SC[βAsp][AEEA][Aun]-OH; thioether N-14)	16.9
CCCCCCN1CC(=O)N[C@@H](Cc2ccc(O)cc2)C(=O)N[C@@H](CCCC)C(=O)N[C@@H](CC(N)=O)C(=O)N[C@@H](CCCNC(=N)N)C(=O)N(C)[C@@H](CCCC)C(=O)N[C@@H](CCCCC)C(=O)N2CC[C@H]2C(=O)N[C@@H](C(C)C)C(=O)N[C@@H](CO)C(=O)N[C@H](C(=O)N[C@@H](CC(=O)NCCOCCOCC(=O)NCCCCCCCCCCC(=O)O)C(=O)O)CSCC(=O)N[C@@H](Cc2ccccc2)C(=O)N[C@@H](Cc2c[nH]c3ccccc23)C(=O)N[C@@H](CC(=O)O)C1=O [Example 2184] ({CH2CO}-FWD[NHexGly]Y[Nle]NR[NMeNle][Ahp(2)][Aze]VSC[βAsp][AEEA][Aun]-OH; thioether N-14)	23.1
CCCCCCN1CC(=O)N[C@@H](Cc2ccc(O)cc2)C(=O)N[C@@H](CCCC)C(=O)N[C@@H](CC(N)=O)C(=O)N[C@@H](CCCNC(=N)N)C(=O)N(C)[C@@H](CCCC)C(=O)N[C@@H](CCCCC)C(=O)N2CCCC[C@H]2C(=O)N[C@@H](Cc2ccccc2)C(=O)N[C@@H](CO)C(=O)N[C@H](C(=O)N[C@@H](CC(=O)NCCOCCOCC(=O)NCCCCCCCCCCC(=O)O)C(=O)O)CSCC(=O)N[C@@H](Cc2ccccc2)C(=O)N[C@@H](Cc2c[nH]c3ccccc23)C(=O)N[C@@H](CC(=O)O)C1=O [Example 2185] ({CH2CO}-FWD[NHexGly]Y[Nle]NR[NMeNle][Ahp(2)][Pip]FSC[βAsp][AEEA][Aun]-OH; thioether N-14)	50.1
CCCCCCN1CC(=O)N[C@@H](Cc2ccc(O)cc2)C(=O)N[C@@H](CCCC)C(=O)N[C@@H](CC(N)=O)C(=O)N[C@@H](CCCNC(=N)N)C(=O)N(C)[C@@H](CCCC)C(=O)N[C@@H](CCCCC)C(=O)N2CCCC[C@H]2C(=O)N[C@@H](C(C)C)C(=O)N[C@@H](CO)C(=O)N[C@H](C(=O)N[C@@H](CC(=O)NCCOCCOCC(=O)NCCCCCCCCCCC(=O)O)C(=O)O)CSCC(=O)N[C@@H](Cc2ccccc2)C(=O)N[C@@H](Cc2c[nH]c3ccccc23)C(=O)N[C@@H](CC(=O)O)C1=O [Example 2186] ({CH2CO}-FWD[NHexGly]Y[Nle]NR[NMeNle][Ahp(2)][Pip]VSC[βAsp][AEEA][Aun]-OH; thioether N-14)	24.4
CCCCCCN1CC(=O)N[C@@H](Cc2ccc(O)cc2)C(=O)N[C@@H](CCCC)C(=O)N[C@@H](CC(N)=O)C(=O)N[C@@H](CCCNC(=N)N)C(=O)N(C)[C@@H](CCCC)C(=O)N[C@@H](CCCCC)C(=O)N2CC[C@H]2C(=O)N[C@@H](C(C)(C)C)C(=O)N[C@@H](CO)C(=O)N[C@H](C(=O)N[C@@H](CC(=O)NCCOCCOCC(=O)NCCCCCCCCCCC(=O)O)C(=O)O)CSCC(=O)N[C@@H](Cc2ccccc2)C(=O)N[C@@H](Cc2c[nH]c3ccccc23)C(=O)N[C@@H](CC(=O)O)C1=O [Example 2187] ({CH2CO}-FWD[NHexGly]Y[Nle]NR[NMeNle][Ahp(2)][Aze][Tle]SC[βAsp][AEEA][Aun]-OH; thioether N-14)	13.3
CCCCCCN1CC(=O)N[C@@H](Cc2ccc(O)cc2)C(=O)N[C@@H](CCCC)C(=O)N[C@@H](CC(N)=O)C(=O)N[C@@H](CCCNC(=N)N)C(=O)N(C)[C@@H](CCCC)C(=O)N[C@@H](CCCCC)C(=O)N2CC[C@H]2C(=O)N[C@@H](Cc2ccccc2)C(=O)N[C@@H](CO)C(=O)N[C@H](C(=O)N[C@@H](CC(=O)NCCOCCOCC(=O)NCCCCCCCCCCC(=O)O)C(=O)O)CSCC(=O)N[C@@H](Cc2ccccc2)C(=O)N[C@@H](Cc2c[nH]c3ccccc23)C(=O)N[C@@H](CC(=O)O)C1=O [Example 2188] ({CH2CO}-FWD[NHexGly]Y[Nle]NR[NMeNle][Ahp(2)][Aze]FSC[βAsp][AEEA][Aun]-OH; thioether N-14)	47.3
CCCCCCN1CC(=O)N[C@@H](Cc2ccc(O)cc2)C(=O)N[C@@H](CCCC)C(=O)N[C@@H](CC(N)=O)C(=O)N[C@@H](CCCNC(=N)N)C(=O)N(C)[C@@H](CCCC)C(=O)N[C@@H](CCCCC)C(=O)N2CCC[C@H]2C(=O)N[C@@H](C(C)(C)C)C(=O)N[C@@H](CO)C(=O)N[C@H](C(=O)N[C@@H](CC(=O)NCCOCCOCC(=O)NCCCCCCCCCCC(=O)O)C(=O)O)CSCC(=O)N[C@@H](Cc2ccccc2)C(=O)N[C@@H](Cc2cccc(C)c2)C(=O)N[C@@H](CC(=O)O)C1=O [Example 2189] ({CH2CO}-F[Phe(3-Me)]D[NHexGly]Y[Nle]NR[NMeNle][Ahp(2)]P[Tle]SC[βAsp][AEEA][Aun]-OH; thioether N-14)	29
CCCCCCN1CC(=O)N[C@@H](Cc2ccc(O)cc2)C(=O)N[C@@H](CCCC)C(=O)N[C@@H](CC(N)=O)C(=O)N[C@@H](CCCNC(=N)N)C(=O)N(C)[C@@H](CCCC)C(=O)N[C@@H](CCCCC)C(=O)N2CCC[C@H]2C(=O)N[C@@H](C(C)(C)C)C(=O)N[C@@H](CO)C(=O)N[C@H](C(=O)N[C@@H](CC(=O)NCCOCCOCC(=O)NCCCCCCCCCCC(=O)O)C(=O)O)CSCC(=O)N[C@@H](Cc2ccccc2)C(=O)N[C@@H](Cc2ccc(O)cc2)C(=O)N[C@@H](CC(=O)O)C1=O [Example 2190] ({CH2CO}-FYD[NHexGly]Y[Nle]NR[NMeNle][Ahp(2)]P[Tle]SC[βAsp][AEEA][Aun]-OH; thioether N-14)	24.4
CCCCCCN1CC(=O)N[C@@H](Cc2ccc(O)cc2)C(=O)N[C@@H](CCCC)C(=O)N[C@@H](CC(N)=O)C(=O)N[C@@H](CCCNC(=N)N)C(=O)N(C)[C@@H](CCCC)C(=O)N[C@@H](CCCCC)C(=O)N2CCC[C@H]2C(=O)N[C@@H](C(C)(C)C)C(=O)N[C@@H](CO)C(=O)N[C@H](C(=O)N[C@@H](CC(=O)NCCOCCOCC(=O)NCCCCCCCCCCC(=O)O)C(=O)O)CSCC(=O)N[C@@H](Cc2ccccc2)C(=O)N[C@@H](Cc2c[nH]c3ccccc23)C(=O)N[C@@H](CC(=O)O)C1=O [Example 2191] ({CH2CO}-FWD[NHexGly]Y[Nle]NR[NMeNle][Ahp(2)]P[Tle]SC[βAsp][AEEA][Aun]-OH; thioether N-14)	19.7
